We go through four cell lines from the supplement of paper PMC10307832.

Holding throughout (assay): relative viability (nuclei count vs DMSO), 5 days (fraction); higher = more cells survive
Compound in the test “IMD-0354 + Foretinib”: O=C(Nc1cc(C(F)(F)F)cc(C(F)(F)F)c1)c1cc(Cl)ccc1O [IMD-0354] + COc1cc2c(Oc3ccc(NC(=O)C4(C(=O)Nc5ccc(F)cc5)CC4)cc3F)ccnc2cc1OCCCN1CCOCC1 [Foretinib] (partner 0.25 µM)
In a few lines:
(§1)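 The day after seeding in 1536-well plates, lung cancer cell lines were treated by pin tool with a single drug, or with a fixed anchor-drug dose together with five library-drug doses (not always all listed) in √10 steps. After 5 days, a combined fix-and-stain solution (final 0.05% Triton X-100, 1% formaldehyde, 1 ug/ml Hoechst) was added. Nuclei counted on 4× images gave relative viability as treated counts over vehicle counts, reported as the median of duplicate plates.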

Compound in the test “CX-5461 + Olaparib”: Cc1cnc(CNC(=O)c2c(=O)c3ccc(N4CCCN(C)CC4)nc3n3c2sc2ccccc23)cn1 [CX-5461] + O=C(c1cc(Cc2n[nH]c(=O)c3ccccc23)ccc1F)N1CCN(C(=O)C2CC2)CC1 [Olaparib] (partner 8 µM)
In a few lines: as §1

Compound in the test “IMD-0354 + Crizotinib”: O=C(Nc1cc(C(F)(F)F)cc(C(F)(F)F)c1)c1cc(Cl)ccc1O [IMD-0354] + C[C@@H](Oc1cc(-c2cnn(C3CCNCC3)c2)cnc1N)c1c(Cl)ccc(F)c1Cl [Crizotinib] (partner 1 µM)
In a few lines:
as §1

Compound in the test “CX-5461 + AZD7762”: Cc1cnc(CNC(=O)c2c(=O)c3ccc(N4CCCN(C)CC4)nc3n3c2sc2ccccc23)cn1 [CX-5461] + NC(=O)Nc1cc(-c2cccc(F)c2)sc1C(=O)N[C@H]1CCCNC1 [AZD7762] (partner 0.2 µM)
In a few lines: as §1

With NCI-H3122, the relative viability came to 0.959 with IMD-0354 + Foretinib (first compound 0.04 µM); 0.964 with IMD-0354 + Foretinib (first compound 0.1265 µM); 0.722 with IMD-0354 + Foretinib (first compound 0.4 µM); 0.779 in the test with IMD-0354 + Foretinib (first compound 1.265 µM); 0.129 with IMD-0354 + Foretinib (first compound 4 µM); 0.695 with CX-5461 + Olaparib (first compound 0.01 µM). The relative viability with CX-5461 + Olaparib (first compound 0.03162 µM) was 0.653; with CX-5461 + Olaparib (first compound 0.1 µM), 0.615; with CX-5461 + Olaparib (first compound 0.3162 µM), 0.667; with CX-5461 + Olaparib (first compound 1 µM), 0.617; with IMD-0354 + Crizotinib (first compound 0.04 µM), 0.298; with IMD-0354 + Crizotinib (first compound 0.1265 µM), 0.29. Further, the relative viability worked out at 0.281 in the test with IMD-0354 + Crizotinib (first compound 0.4 µM); 0.202 with IMD-0354 + Crizotinib (first compound 1.265 µM); 0.167 with IMD-0354 + Crizotinib (first compound 4 µM); 1.06 with CX-5461 + AZD7762 (first compound 0.01 µM); 0.946 in the test with CX-5461 + AZD7762 (first compound 0.03162 µM); 0.936 in the test with CX-5461 + AZD7762 (first compound 0.1 µM). Besides, the relative viability was 1.03 with CX-5461 + AZD7762 (first compound 0.3162 µM) and 0.607 in the test with CX-5461 + AZD7762 (first compound 1 µM).

For the cell line PC-3 [JPC-3], the relative viability with IMD-0354 + Foretinib (first compound 0.04 µM) turned out to be 1.07; with IMD-0354 + Foretinib (first compound 0.1265 µM) it was 1; with IMD-0354 + Foretinib (first compound 0.4 µM), 0.61; in the test with IMD-0354 + Foretinib (first compound 1.265 µM) it was 0.376; in the test with IMD-0354 + Foretinib (first compound 4 µM), 0.272; with CX-5461 + Olaparib (first compound 0.01 µM) it was 1.15. Also, the relative viability with CX-5461 + Olaparib (first compound 0.1 µM) was 1.08; with CX-5461 + Olaparib (first compound 0.3162 µM) it was 1.15; with CX-5461 + Olaparib (first compound 1 µM), 0.898; in the test with IMD-0354 + Crizotinib (first compound 0.04 µM), 1.08; with IMD-0354 + Crizotinib (first compound 0.1265 µM), 1.01; with IMD-0354 + Crizotinib (first compound 0.4 µM), 0.601. Besides, the relative viability with IMD-0354 + Crizotinib (first compound 1.265 µM) is 0.419; with IMD-0354 + Crizotinib (first compound 4 µM) it was 0.18; with CX-5461 + AZD7762 (first compound 0.01 µM), 0.803; with CX-5461 + AZD7762 (first compound 0.1 µM), 0.822; in the test with CX-5461 + AZD7762 (first compound 0.3162 µM) it was 0.865; in the test with CX-5461 + AZD7762 (first compound 1 µM), 0.759.

PC-14: the relative viability worked out at 1.05 with IMD-0354 + Foretinib (first compound 0.04 µM); 0.799 with IMD-0354 + Foretinib (first compound 0.1265 µM); 0.698 with IMD-0354 + Foretinib (first compound 0.4 µM); 0.546 with IMD-0354 + Foretinib (first compound 1.265 µM); 0.179 with IMD-0354 + Foretinib (first compound 4 µM); 0.241 with CX-5461 + Olaparib (first compound 0.01 µM). Further, the relative viability with CX-5461 + Olaparib (first compound 0.03162 µM) came to 0.252; with CX-5461 + Olaparib (first compound 0.1 µM), 0.125; with CX-5461 + Olaparib (first compound 0.3162 µM), 0.213; with CX-5461 + Olaparib (first compound 1 µM) it was 0.0738; in the test with IMD-0354 + Crizotinib (first compound 0.04 µM), 0.988; in the test with IMD-0354 + Crizotinib (first compound 0.1265 µM), 0.92. The relative viability worked out at 0.357 in the test with IMD-0354 + Crizotinib (first compound 0.4 µM); 0.387 in the test with IMD-0354 + Crizotinib (first compound 1.265 µM); 0.179 with IMD-0354 + Crizotinib (first compound 4 µM); 0.393 in the test with CX-5461 + AZD7762 (first compound 0.01 µM); 0.455 with CX-5461 + AZD7762 (first compound 0.03162 µM); 0.351 with CX-5461 + AZD7762 (first compound 0.1 µM). The results for the relative viability with CX-5461 + AZD7762 (first compound 0.3162 µM) and in the test with CX-5461 + AZD7762 (first compound 1 µM) were 0.407 and 0.227, respectively.

RERF-LC-KJ: the relative viability in the test with IMD-0354 + Foretinib (first compound 0.04 µM) amounted to 0.934; in the test with IMD-0354 + Foretinib (first compound 0.1265 µM), 0.93; in the test with IMD-0354 + Foretinib (first compound 0.4 µM) it was 0.568; with IMD-0354 + Foretinib (first compound 1.265 µM), 0.471; with IMD-0354 + Foretinib (first compound 4 µM) it was 0.214; with CX-5461 + Olaparib (first compound 0.01 µM), 0.785. For the same cell line, the relative viability in the test with CX-5461 + Olaparib (first compound 0.03162 µM) worked out at 0.827; in the test with CX-5461 + Olaparib (first compound 0.1 µM) it was 0.619; with CX-5461 + Olaparib (first compound 0.3162 µM) it was 0.848; with CX-5461 + Olaparib (first compound 1 µM) it was 0.415; with IMD-0354 + Crizotinib (first compound 0.04 µM), 0.861; in the test with IMD-0354 + Crizotinib (first compound 0.1265 µM), 0.893. In addition, the relative viability with IMD-0354 + Crizotinib (first compound 0.4 µM) stood at 0.495; with IMD-0354 + Crizotinib (first compound 1.265 µM), 0.311; in the test with IMD-0354 + Crizotinib (first compound 4 µM), 0.196; with CX-5461 + AZD7762 (first compound 0.01 µM) it was 1; in the test with CX-5461 + AZD7762 (first compound 0.03162 µM) it was 0.897; in the test with CX-5461 + AZD7762 (first compound 0.1 µM), 0.954. The results for the relative viability with CX-5461 + AZD7762 (first compound 0.3162 µM) and with CX-5461 + AZD7762 (first compound 1 µM) were 0.807 and 0.901, respectively.
